{"source": "patent US20250040542A1", "about": "“USE OF PHENYLPHENALENONES AS A SELECTIVE HERBICIDE” (UNIVERSITE DE LIMOGES, priority 2021, published 2025)", "key": {"[1]": {"assay": "Photodegradation test, exposed to sunlight", "format": "physicochemical", "conditions": "100 μM in distilled water", "protocol": "A photodegradation test was conducted on 100 μM anigorufone exposed to sunlight. An anigorufone solution was prepared at the studied dose (100 μM) from a stock solution in 50 ml of distilled water in glass flasks. The flasks were placed outside and exposed to full sunlight. The experiment was carried out three times in June 2022 under light conditions corresponding to sunny/partially clear skies. 1 ml of the solution was run through UV-Vis spectrometry and photodegradation was tracked by the decrease in absorbance at 370 nm. […]"}, "Fishing worms (maggots)": {"tested_on": "Fishing worms (maggots)", "assay": "Toxicity test on fishing worms (maggots)", "format": "in vivo", "protocol": "Fishing worms (maggots) were spray treated with 100 μM (27.2 mg/L) anigorufone. 30 fishing worms were cultured per petri dish and 10 sprays were performed per dish. The fishing worms were cultured under photoperiod conditions (16 h light/8 h dark); 8000 Lux; 22° C.). The experiment was conducted three times. […]"}, "Poppy (Papaver rhoeas)": {"tested_on": "Poppy (Papaver rhoeas)", "assay": "Greenhouse foliar spraying on weed", "format": "in vivo", "parameters": "key to Resistance (degree of resistance of the weed to the treatments): least resistant +; most resistant ++++++++", "protocol": "(§1) A 5 mM stock solution was prepared in 50% v/v ethanol (96°). Next, the solution was further diluted in distilled water to obtain 10 μM for in vitro testing and 50 μM, 75 μM and 100 μM for greenhouse testing. 0.1% v/v of the surfactant IGEPAL-Co 630 was added to the solution in order to obtain a product ready for spraying on seedlings in the greenhouse.\n(§2) The different seeds are grown in a greenhouse in commercial potting soil (Terreau Universel, Fertiligene). The seeds were sown in the greenhouse under controlled temperature and humidity conditions (the temperature varies between 15° C. and 30° C. depending on the season, and the relative humidity varies from 50 to 70%). 6 isolated treatments (approximately 10 sprays each) spaced 48 hours apart were carried out one week after germination.\n(§3) After 7 weeks, the seedlings were harvested. The roots and aboveground parts were separated and the roots were washed with distilled water and dried on absorbent paper. These materials were then stored at −20° C.\n(§4) The formulation in which the active ingredient is 50 μM Anigorufone was tested on a barley+poppy system and on tomato plants, with two treatments spaced 48 hours apart.\nTests in a greenhouse were carried out. All plants were exposed to 6 treatments with 3 increasing doses spaced 48 hours apart: C1 (50 μM or 13.6 mg/l), C2 (75 μM or 20.4 mg/l), C3 (100 μM or 27.2 mg/l). […]"}, "[2]": {"tested_on": "Sunflower (Helianthus annuus)", "assay": "Greenhouse foliar spraying on plant of interest", "format": "in vivo", "conditions": "6 treatments spaced 48 hours apart", "protocol": "as §1, §2, §3\n(§5) Tests in a greenhouse were carried out. All plants were exposed to 6 treatments with 3 increasing doses spaced 48 hours apart: C1 (50 μM or 13.6 mg/l), C2 (75 μM or 20.4 mg/l), C3 (100 μM or 27.2 mg/l). Harvesting was conducted 7 weeks after germination."}, "Wheat (Triticum sativum)": {"tested_on": "Wheat (Triticum sativum)", "assay": "Greenhouse foliar spraying on plant of interest", "format": "in vivo", "conditions": "6 treatments spaced 48 hours apart, C1 50 μM, C2 75 μM, C3 100 μM, harvest 7 weeks after germination", "protocol": "as §1, §2, §3, §5"}, "Onion (Allium cepa)": {"tested_on": "Onion (Allium cepa)", "assay": "Greenhouse foliar spraying on plant of interest", "format": "in vivo", "conditions": "6 treatments spaced 48 hours apart, C1 50 μM, C2 75 μM, C3 100 μM, harvest 7 weeks after germination", "protocol": "as §1, §2, §3, §5"}, "[3]": {"tested_on": "Spinach (Spinacia oleracea)", "assay": "Greenhouse foliar spraying on plant of interest", "format": "in vivo", "conditions": "6 treatments spaced 48 hours apart, C1 50 μM, C2 75 μM, C3 100 μM, harvest 7 weeks after germination", "protocol": "as §1, §2, §3, §5"}, "Corn (Zea mays)": {"tested_on": "Corn (Zea mays)", "assay": "Greenhouse foliar spraying on plant of interest", "format": "in vivo", "conditions": "6 treatments spaced 48 hours apart, C1 50 μM, C2 75 μM, C3 100 μM, harvest 7 weeks after germination", "protocol": "as §1, §2, §3, §5"}, "Turnip (Brassica napa)": {"tested_on": "Turnip (Brassica napa)", "assay": "Greenhouse foliar spraying on plant of interest", "format": "in vivo", "conditions": "6 treatments spaced 48 hours apart, C1 50 μM, C2 75 μM, C3 100 μM, harvest 7 weeks after germination", "protocol": "as §1, §2, §3, §5"}, "[4]": {"tested_on": "Tomato Lycopersicon esculentum var Marmande", "assay": "Greenhouse foliar spraying on plant of interest", "format": "in vivo", "protocol": "as §1, §2, §3, §4, §5"}, "[5]": {"tested_on": "Dandelion (Taraxacum officinale)", "assay": "Greenhouse foliar spraying on weed", "format": "in vivo", "parameters": "key: least resistant +; most resistant ++++++++", "conditions": "6 treatments spaced 48 hours apart, C1 50 μM, C2 75 μM, C3 100 μM, harvest 7 weeks after germination; ranking among 8 weeds", "protocol": "as §1, §2, §3, §5"}}, "data": [{"smiles": "O=C1C(O)=Cc2cccc3ccc(-c4ccccc4)c1c23", "note": "[Anigorufone, 2-hydroxy-9-phenylphenalenone]", "values": [{"measurement": "photodegradation", "setting": "[1]; after 2 weeks", "result": "degraded almost completely"}, {"measurement": "persistent molecules", "setting": "[1]; after 72 hours, absorbance at 370 nm", "result": "30-40%"}, {"measurement": "viability rate of the maggots compared to the control conditions", "setting": "Fishing worms (maggots); spray treated with 100 μM (27.2 mg/L), 10 sprays per dish, 30 worms per dish", "result": "remains constant"}, {"measurement": "effects on fishing worms", "setting": "Fishing worms (maggots); tested at 100 μM (27.2 mg/L), spray", "result": "no effects"}, {"measurement": "herbicidal effect on poppy", "setting": "Poppy (Papaver rhoeas); 50 μM, two treatments spaced 48 hours apart, foliar spraying, 17-day-old seedlings, barley+poppy system", "result": "dead"}, {"measurement": "Resistance (degree of resistance of the weed to the treatments)", "setting": "Poppy (Papaver rhoeas); 6 treatments spaced 48 hours apart, C1 50 μM, C2 75 μM, C3 100 μM, harvest 7 weeks after germination, ranking among 8 weeds", "result": "+"}, {"measurement": "effect on sunflower", "setting": "[2]; C1 50 μM, C2 75 μM, C3 100 μM, harvest 7 weeks after germination", "result": "no effect"}, {"measurement": "flowering of sunflowers", "setting": "[2]; treated with C1 (50 μM) and C2 (75 μM)", "result": "flowering induction"}, {"measurement": "effect on wheat", "setting": "Wheat (Triticum sativum)", "result": "no effect"}, {"measurement": "effect on onion", "setting": "Onion (Allium cepa)", "result": "no effect"}, {"measurement": "effect on spinach", "setting": "[3]", "result": "no effect"}, {"measurement": "effect on corn", "setting": "Corn (Zea mays)", "result": "no effect"}, {"measurement": "effect on turnip", "setting": "Turnip (Brassica napa)", "result": "no effect"}, {"measurement": "growth of tomatoes compared to the control lot", "setting": "[4]; 50 μM, two treatments spaced 48 hours apart, foliar spraying", "result": "does not affect their growth"}, {"measurement": "growth of tomato plants two months after treatment", "setting": "[4]; 50 μM, two treatments, two months after treatment, compared to untreated plants", "result": "normal growth"}, {"measurement": "effect on tomato", "setting": "[4]; 6 treatments spaced 48 hours apart, C1 50 μM, C2 75 μM, C3 100 μM, harvest 7 weeks after germination", "result": "no effect"}, {"measurement": "Resistance (degree of resistance of the weed to the treatments)", "setting": "[5]", "result": "++++++++"}]}]}
